What follows are molecules tested against T1, Tyrosine-protein kinase receptor TYRO3 (Homo sapiens, UniProt Q06418) (assay: TYRO3 Enzymatic Assay).
T1 sequence (Q06418 whole entry): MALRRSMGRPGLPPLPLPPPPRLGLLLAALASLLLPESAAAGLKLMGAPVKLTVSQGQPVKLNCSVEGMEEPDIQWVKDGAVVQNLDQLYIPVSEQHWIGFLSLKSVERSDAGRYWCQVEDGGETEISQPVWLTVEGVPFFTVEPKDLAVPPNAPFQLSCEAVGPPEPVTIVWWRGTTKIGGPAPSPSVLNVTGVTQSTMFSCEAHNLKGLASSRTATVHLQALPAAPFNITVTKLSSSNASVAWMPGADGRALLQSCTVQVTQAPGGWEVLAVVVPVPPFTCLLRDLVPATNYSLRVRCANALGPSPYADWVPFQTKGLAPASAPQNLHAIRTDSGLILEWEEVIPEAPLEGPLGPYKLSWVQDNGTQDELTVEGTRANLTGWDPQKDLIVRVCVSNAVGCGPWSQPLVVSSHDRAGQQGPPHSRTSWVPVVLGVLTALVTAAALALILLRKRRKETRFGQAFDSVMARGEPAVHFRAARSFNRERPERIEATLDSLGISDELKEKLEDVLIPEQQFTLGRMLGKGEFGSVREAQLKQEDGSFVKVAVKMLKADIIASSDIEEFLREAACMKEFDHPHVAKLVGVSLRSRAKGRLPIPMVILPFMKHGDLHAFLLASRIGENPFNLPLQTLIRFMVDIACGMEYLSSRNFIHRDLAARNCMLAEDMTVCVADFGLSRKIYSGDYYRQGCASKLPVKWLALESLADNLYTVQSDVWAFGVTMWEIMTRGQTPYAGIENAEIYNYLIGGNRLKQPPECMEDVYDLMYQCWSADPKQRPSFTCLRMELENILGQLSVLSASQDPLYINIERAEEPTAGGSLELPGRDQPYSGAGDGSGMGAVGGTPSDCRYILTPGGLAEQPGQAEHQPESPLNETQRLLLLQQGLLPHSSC
Protocol: Poly(Glu, Tyr) sodium salt (Glu:Tyr (4:1), quality level 200, molecular weight 5,000-20,000, obtained from Sigma Aldrich, catalogue #P7244, assay concentration 0.20 mg/mL) and recombinant human TYRO3 (obtained from ThermoFisher Scientific, catalogue #PV3828, assay concentration 2 nM) were mixed in assay buffer (20 mM Hepes pH 7.5, 10 mM MgCl2, 1 mM EGTA, 0.02% Brij35, 0.02 mg/ml BSA, 0.1 mM Na3VO4, 2 mM DTT, 1% DMSO, with added MnCl2 at a final concentration of 2 mM). Compounds of interest (in DMSO, serial 3-fold dilution from 10 μM to 0.5 nM) or control (1% DMSO) were dispensed into the kinase reaction mixture by Acoustic technology (Echo550; nanoliter range). After incubation at room temperature for 20 minutes, the kinase reaction was initiated by addition of [32P]-ATP (Specific activity 10 μCi/μl) and the mixture was incubated at room temperature for 2 hours. The reaction was then stopped by spotting the reaction mixture on strips of phosphocellulose P81 paper. Following washing, the radioactivity of the P81 paper was measured and kinase activity data were expressed as the percent remaining kinase activity in test samples compared to vehicle (dimethyl sulfoxide) reactions.

| IC50 [nM] | SMILES |
| --- | --- |
| < 51 | Cc1cccc(-c2c[nH]c3ncc(-c4ccc(CN5CCCC(O)C5)cc4)cc23)c1 (stereo unspecified) [US20240425499, Compound 2] |
| < 51 | OC1CCCN(Cc2ccc(-c3cnc4[nH]cc(-c5cccc(F)c5)c4c3)cc2)C1 (stereo unspecified) [US20240425499, Compound 4] |
| < 51 | OC1CCCN(Cc2ccc(-c3cnc4[nH]cc(-c5cccc(C(F)F)c5)c4c3)cc2)C1 (stereo unspecified) [US20240425499, Compound 9] |
| < 51 | OC1CCCN(Cc2ccc(-c3cnc4[nH]cc(-c5cc(F)cc(F)c5)c4c3)cc2)C1 (stereo unspecified) [US20240425499, Compound 12] |
| > 501 | OC1CCCN(Cc2ccc(-c3cnc4[nH]cc(-c5cc(F)cc(C(F)(F)F)c5)c4c3)cc2)C1 (stereo unspecified) [US20240425499, Compound 13] |
| < 51 | N#Cc1ccc(-c2c[nH]c3ncc(-c4ccc(CN5CCCC(O)C5)cc4)cc23)cc1 (stereo unspecified) [US20240425499, Compound 14] |
| < 51 | N#Cc1cccc(-c2c[nH]c3ncc(-c4ccc(CN5CCCC(O)C5)cc4)cc23)c1 (stereo unspecified) [US20240425499, Compound 15] |
| < 51 | Oc1ccc(-c2c[nH]c3ncc(-c4ccc(CN5CCCC(O)C5)cc4)cc23)cc1 (stereo unspecified) [US20240425499, Compound 16] |
| < 51 | CN(C)Cc1ccc(-c2c[nH]c3ncc(-c4ccc(CN5CCCC(O)C5)cc4)cc23)cc1 (stereo unspecified) [US20240425499, Compound 17] |
| < 51 | COc1ccc(-c2c[nH]c3ncc(-c4ccc(CN5CCCC(O)C5)cc4)cc23)cc1C#N (stereo unspecified) [US20240425499, Compound 18] |
| < 51 | OC1CCCN(Cc2ccc(-c3cnc4[nH]cc(-c5ccc(C(F)F)nc5)c4c3)cc2)C1 (stereo unspecified) [US20240425499, Compound 23] |
| > 501 | COc1ccc(-c2c[nH]c3ncc(-c4ccc(CN5CC(O)CC(F)(F)C5)cc4)cc23)cn1 (stereo unspecified) [US20240425499, Compound 31] |
| > 501 | COc1ccc(-c2c[nH]c3ncc(-c4ccc(CN5CC(CO)CC(F)(F)C5)cc4)cc23)cn1 (stereo unspecified) [US20240425499, Compound 33] |
| > 501 | COc1ccc(-c2c[nH]c3ncc(-c4ccc(CN5CCCC(F)(F)C5)cc4)cc23)cn1 [US20240425499, Compound 41] |
| < 51 | OC1CN(Cc2ccc(-c3cnc4[nH]cc(-c5ccc6[nH]ccc6c5)c4c3)cc2)C1 [US20240425499, Compound 44] |
| < 51 | COC1CCN(Cc2ccc(-c3cnc4[nH]cc(-c5ccc6[nH]ccc6c5)c4c3)cc2)CC1 [US20240425499, Compound 45] |
| < 51 | COC1CN(Cc2ccc(-c3cnc4[nH]cc(-c5ccc6[nH]ccc6c5)c4c3)cc2)C1 [US20240425499, Compound 46] |
| < 51 | OC1CCCN(Cc2ccc(-c3cnc4[nH]cc(-c5cnc6[nH]ccc6c5)c4c3)cc2)C1 (stereo unspecified) [US20240425499, Compound 47] |
| < 51 | OC1CCCN(Cc2ccc(-c3cnc4[nH]cc(-c5ccc6cn[nH]c6c5)c4c3)cc2)C1 (stereo unspecified) [US20240425499, Compound 48] |
| < 51 | OC1CCCN(Cc2ccc(-c3cnc4[nH]cc(-c5cccc6[nH]ncc56)c4c3)cc2)C1 (stereo unspecified) [US20240425499, Compound 49] |
| < 51 | OC1CCCN(Cc2ccc(-c3cnc4[nH]cc(-c5ccc6ocnc6c5)c4c3)cc2)C1 (stereo unspecified) [US20240425499, Compound 50] |
| < 51 | Cc1nc2cc(-c3c[nH]c4ncc(-c5ccc(CN6CCCC(O)C6)cc5)cc34)ccc2o1 (stereo unspecified) [US20240425499, Compound 51] |
| < 51 | OC1CCCN(Cc2ccc(-c3cnc4[nH]cc(-c5cc(F)c6ocnc6c5)c4c3)cc2)C1 (stereo unspecified) [US20240425499, Compound 52] |

| IC50 [nM] | SMILES |
| --- | --- |
| < 51 | N#Cc1cc(-c2c[nH]c3ncc(-c4ccc(CN5CCCC(O)C5)cc4)cc23)ccc1O (stereo unspecified) [US20240425499, Compound 53] |
| < 51 | COc1ccc(-c2c(Cl)[nH]c3ncc(-c4ccc(CN5CCCC(O)C5)cc4)cc23)cn1 (stereo unspecified) [US20240425499, Compound 56] |
| < 51 | CCc1[nH]c2ncc(-c3ccc(CN4CCCC(O)C4)cc3)cc2c1-c1cccc(F)c1 (stereo unspecified) [US20240425499, Compound 57] |
| < 51 | CCc1[nH]c2ncc(-c3ccc(CN4CCCC(O)C4)cc3)cc2c1-c1ccc(C(F)F)nc1 (stereo unspecified) [US20240425499, Compound 58] |
| < 51 | CCc1[nH]c2ncc(-c3ccc(CN4CCCC(O)C4)cc3)cc2c1-c1ccc(OC)nc1 (stereo unspecified) [US20240425499, Compound 59] |
| < 51 | CCc1[nH]c2ncc(-c3ccc(CN4CCCC(O)C4)cc3)cc2c1-c1ccnc(F)c1 (stereo unspecified) [US20240425499, Compound 60] |
| < 51 | CCc1[nH]c2ncc(-c3ccc(CN4CCCC(O)C4)cc3)cc2c1-c1ccnc(C(F)F)c1 (stereo unspecified) [US20240425499, Compound 61] |
| < 51 | COCc1[nH]c2ncc(-c3ccc(CN4CCCC(O)C4)cc3)cc2c1-c1cccc(F)c1 (stereo unspecified) [US20240425499, Compound 63] |
| < 51 | COCc1[nH]c2ncc(-c3ccc(CN4CCCC(O)C4)cc3)cc2c1-c1ccnc(F)c1 (stereo unspecified) [US20240425499, Compound 65] |
| < 51 | COCc1[nH]c2ncc(-c3ccc(CN4CCCC(O)C4)cc3)cc2c1-c1ccnc(C(F)F)c1 (stereo unspecified) [US20240425499, Compound 66] |
| < 51 | CCOCc1[nH]c2ncc(-c3ccc(CN4CCCC(O)C4)cc3)cc2c1-c1cccc(F)c1 (stereo unspecified) [US20240425499, Compound 67] |
| > 501 | COc1ccc(-c2c[nH]c3ncc(-c4ccc(N5CCC(C)(O)CC5)cc4)cc23)cn1 [US20240425499, Compound 72] |
| < 51 | COc1ccc(-c2c[nH]c3ncc(-c4ccc(C(C)N5CCCC(O)C5)cc4)cc23)cn1 (stereo unspecified) [US20240425499, Compound 75] |
| < 51 | CC1(O)CCN(Cc2ccc(-c3cnc4[nH]cc(-c5ccc6[nH]ccc6c5)c4c3)cc2)CC1 [US20240425499, Compound 76] |
| < 51 | OC1CCN(Cc2ccc(-c3cnc4[nH]cc(-c5ccc6[nH]ccc6c5)c4c3)cc2)CC1 [US20240425499, Compound 78] |
| < 51 | c1cc2cc(-c3c[nH]c4ncc(-c5ccc(CN6CCCCC6)cc5)cc34)ccc2[nH]1 [US20240425499, Compound 79] |
| < 51 | OC1CCCN(Cc2ccc(-c3cnc4[nH]cc(-c5ccc6c(c5)CCNC6)c4c3)cc2)C1 (stereo unspecified) [US20240425499, Compound 80] |
| < 51 | OCc1ccc(-c2c[nH]c3ncc(-c4ccc(CN5CCCC(O)C5)cc4)cc23)cc1 (stereo unspecified) [US20240425499, Compound 83] |
| < 51 | Cc1nc2cc(-c3c[nH]c4ncc(-c5ccc(CN6CCCC(O)C6)cc5)cc34)cnc2o1 (stereo unspecified) [US20240425499, Compound 84] |
| < 51 | CC(C)(O)c1ccc(-c2c[nH]c3ncc(-c4ccc(CN5CCCC(O)C5)cc4)cc23)cc1 (stereo unspecified) [US20240425499, Compound 85] |
| < 51 | OC1CCCN(Cc2ccc(-c3cnc4[nH]c(-c5ccoc5)c(-c5ccnc(F)c5)c4c3)cc2)C1 (stereo unspecified) [US20240425499, Compound 86] |
| > 501 | CN(C)Cc1[nH]c2ncc(-c3ccc(CN4CCCC(O)C4)cc3)cc2c1-c1cccc(F)c1 (stereo unspecified) [US20240425499, Compound 87] |
| < 51 | OC1CCCN(Cc2ccc(-c3cnc4[nH]c(CC5CC5)c(-c5cccc(F)c5)c4c3)cc2)C1 (stereo unspecified) [US20240425499, Compound 90] |

From BindingDB's records for patent US20240425499 (Halia Therapeutics, 2024)
